Reference: patent US6329339A, “Pharmaceutical antiviral composition comprising glycyrrhizic acid and at least one protein endowed with antiviral activity” (priority 1997, dated 2001)

Assays:
[1] = in vivo, cited from earlier work
[2] = tested on: Herpes Simplex Virus type 1; conditions: cited from earlier work
[3] = tested on: virus (viral replication); conditions: cited from earlier work
[4] = tested on: infected cells, synthesis of proteins; conditions: even at doses of 4 mM; cited from earlier work
[5] = tested on: HSV1; experiment: Inhibition of HSV1 viral plaques on VERO cells; type: cell-based, Herpes Simplex Virus type 1; conditions: for Inhibition (%) of viral plaques with various lysozymes: percentage of the control ± standard deviation
[6] = tested on: normal cells, synthesis of glyco-proteins; conditions: cited from earlier work
[7] = tested on: infected cells, synthesis of glyco-proteins; conditions: cited from earlier work
[8] = tested on: normal cells, synthesis of proteins; conditions: even at doses of 4 mM; cited from earlier work
[9] = tested on: HSV1; conditions: 8 mM, cited from earlier work
[10] = tested on: HSV1; conditions: Arch. Virol. 1995; cited from earlier work
[11] = tested on: human immunodeficiency virus; conditions: in vitro; cited from earlier work
[12] = tested on: human cytomegalovirus; conditions: in vitro; cited from earlier work
[13] = Human alphaherpesvirus 1, Vero, read-out: Glycyrrhizic acid - Inhibition (%) of viral plaques

Q: Which results are given for `Nc1nc2c(ncn2COCCO)c(=O)[nH]1` [aciclovir]?
A: side effects of oral treatment ([1]; po): nausea, diarrhoea, itching, headaches, renal inadequacies and nephrotoxicity; side effects of topical use [1]: often causes burning and irritation of mucous membranes; efficacy during the first infection ([2]; administered during the first infection): fairly efficient; prevention of re-infection ([2]; re-infection by Herpes Simplex Virus type 1): not preventing re-infection; efficacy in recurring infections ([2]; recurring infections): not very effective

Q: With `CC1(C)[C@@H](O[C@H]2O[C@H](C(=O)O)[C@@H](O)[C@H](O)[C@H]2O[C@@H]2O[C@H](C(=O)O)[C@@H](O)[C@H](O)[C@H]2O)CC[C@]2(C)[C@H]3C(=O)C=C4[C@@H]5C[C@@](C)(C(=O)O)CC[C@]5(C)CC[C@@]4(C)[C@]3(C)CC[C@@H]12` [glycyrrhizic acid] as the molecule, how does the “inhibition of viral replication” value ([3]; 0.5 mM) read?
A: 50%

Q: And the “reduction of the virus” value ([3]; 1 mM)?
A: 80%

Q: And the “inhibition of production of the virus” value ([3]; 4 mM)?
A: 99%

Q: And the antiviral activity [3]?
A: a certain antiviral activity

Q: What about the “action on the synthesis of proteins, infected cells” value [4] of the same molecule?
A: practically irrelevant

Q: And the inhibition at 200 µg/mL [5, 13]?
A: 0%

Q: And the inhibition at 400 µg/mL [5, 13]?
A: 10 ± 4%

Q: And the inhibition at 600 µg/mL [5, 13]?
A: 27 ± 7%

Q: And the inhibition at 800 µg/mL [5, 13]?
A: 50 ± 8%

Q: What about the inhibition at 1000 µg/mL [5, 13] of the same molecule?
A: 75 ± 12%

Q: What about the “inhibition of incorporation of glucosamine-H^3, normal cells” value ([6]; 0.5 mM, normal cells) of the same molecule?
A: no inhibition

Q: And the “inhibition of the synthesis of glyco-proteins in the control” value ([6]; 1 mM, control (normal) cells)?
A: no inhibition

Q: What about the “synthesis of glyco-proteins in the normal cells” value ([6]; 4 mM, normal cells) of the same molecule?
A: slightly altered

Q: What about the cell glycoproteins synthesis ([6]; only at very high doses) of the same molecule?
A: only at very high doses does it also inhibit

Q: What about the “reduction in the incorporation of glucosamine-H^3, infected cells” value ([7]; 0.5 mM, infected cells) of the same molecule?
A: more than 10%

Q: And the “reduction in the synthesis of glyco-protein in infected cells” value ([7]; 1 mM, infected cells)?
A: 20%

Q: And the “synthesis of viral glycoproteins” value ([7]; at antiviral doses)?
A: largely inhibits

Q: What about the “action on the synthesis of proteins, normal cells” value [8] of the same molecule?
A: practically irrelevant

Q: What about the “Viral production after 12 hours” value ([9]; contact 2 hours at 37° C., 12 hours (control 3 × 10^6)) of the same molecule?
A: 4.2 × 10^4 PFU/ml

Q: And the “Viral production after 17 hours” value ([9]; contact 2 hours at 37° C., 17 hours (control 5.4 × 10^6))?
A: 1.2 × 10^4 PFU/ml

Q: What about the “inhibition at 12 hours from the infection” value ([9]; 12 hours) of the same molecule?
A: about 2 logarithms

Q: And the “inhibition at 22 hours from infection” value ([9]; 22 hours)?
A: ~3 logarithms

Q: And the “inhibition at 22 hours from infection (%)” value ([9]; 22 hours)?
A: 99.9%

Q: What about the decrease in infection ([9]; at 12, 17 and 22 hours) of the same molecule?
A: strong decrease in infection

Q: Which “Inhibition (%) of viral plaques with various lysozymes” value (“Inhibition (%) of viral plaques” for short) ([5]; 0.5 mg/ml) does the source give for “chicken lysozyme: chicken lysozyme supplied by SIGMA” here?
A: 20 ± 4%

Q: What about the “Inhibition (%) of viral plaques” value ([5]; 1 mg/ml) of the same molecule?
A: 49 ± 5%

Q: And the “Inhibition (%) of viral plaques” value ([5]; 2 mg/ml)?
A: 60 ± 6%

Q: And the “Inhibition (%) of viral plaques” value ([5]; 4 mg/ml)?
A: 71 ± 6%

Q: And the “Inhibition (%) of viral plaques” value ([5]; 6 mg/ml)?
A: 82 ± 4%

Q: And the “dose dependence of the action” value ([5]; in words)?
A: dose-dependent

Q: What about the “formation of herpetic virus plaques on VERO cells” value ([5]; in words) of the same molecule?
A: significantly inhibits

Q: What does the source list for lactoferrin?
A: antiviral / antiherpetic (HSV1) activity of lactoferrin [10]: antiherpetic (HSV1) activity; activity against human immunodeficiency virus replication [11]: potent activity; activity against human cytomegalovirus replication [12]: potent activity
